# Literature values, collected in patent US4339582A (priority 1981, dated 1982).
# Conditions: literature, J. Med. Chem. 18, 1126-30 (1975)
structure (smiles),measurement,value
c1ccc(C2CCC3CCCCN3C2)cc1 (stereo not shown),reported activity,antidepressant activity
